{"source": "paper doi:10.1101/2021.04.08.439011v1", "about": "(biorxiv, 2021)", "key": {"PIK3CB": {"target": "PIK3CB (Homo sapiens, UniProt P42338)", "sequence (P42338 whole entry)": "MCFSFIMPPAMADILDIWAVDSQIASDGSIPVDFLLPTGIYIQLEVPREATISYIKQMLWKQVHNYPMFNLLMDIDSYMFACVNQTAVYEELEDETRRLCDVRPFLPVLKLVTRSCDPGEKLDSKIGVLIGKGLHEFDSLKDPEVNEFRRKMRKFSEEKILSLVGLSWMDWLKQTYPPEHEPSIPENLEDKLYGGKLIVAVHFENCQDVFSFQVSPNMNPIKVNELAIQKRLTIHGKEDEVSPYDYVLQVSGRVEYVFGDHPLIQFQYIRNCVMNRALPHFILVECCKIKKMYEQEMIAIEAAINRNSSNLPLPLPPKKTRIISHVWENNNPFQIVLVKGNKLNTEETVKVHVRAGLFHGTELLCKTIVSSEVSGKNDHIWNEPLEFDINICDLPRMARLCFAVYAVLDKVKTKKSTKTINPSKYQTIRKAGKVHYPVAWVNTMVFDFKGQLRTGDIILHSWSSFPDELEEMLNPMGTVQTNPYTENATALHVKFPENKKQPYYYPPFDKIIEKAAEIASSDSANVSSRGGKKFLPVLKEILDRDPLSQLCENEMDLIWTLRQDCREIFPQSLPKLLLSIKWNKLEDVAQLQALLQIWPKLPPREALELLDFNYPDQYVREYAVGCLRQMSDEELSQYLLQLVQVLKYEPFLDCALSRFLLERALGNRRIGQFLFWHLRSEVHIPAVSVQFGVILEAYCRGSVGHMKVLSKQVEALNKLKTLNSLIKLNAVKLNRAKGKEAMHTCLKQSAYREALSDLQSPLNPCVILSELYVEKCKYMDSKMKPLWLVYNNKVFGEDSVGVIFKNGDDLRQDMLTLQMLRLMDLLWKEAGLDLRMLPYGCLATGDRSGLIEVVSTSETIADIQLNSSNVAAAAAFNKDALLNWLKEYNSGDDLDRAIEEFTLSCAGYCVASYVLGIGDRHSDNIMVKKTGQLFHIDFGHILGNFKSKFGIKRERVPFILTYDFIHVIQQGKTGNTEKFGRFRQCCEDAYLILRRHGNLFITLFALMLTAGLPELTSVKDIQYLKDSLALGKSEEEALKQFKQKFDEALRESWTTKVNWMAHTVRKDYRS", "details": "0.1 µM; binder"}, "STK16": {"target": "STK16 (Homo sapiens, UniProt O75716)", "sequence (O75716 whole entry)": "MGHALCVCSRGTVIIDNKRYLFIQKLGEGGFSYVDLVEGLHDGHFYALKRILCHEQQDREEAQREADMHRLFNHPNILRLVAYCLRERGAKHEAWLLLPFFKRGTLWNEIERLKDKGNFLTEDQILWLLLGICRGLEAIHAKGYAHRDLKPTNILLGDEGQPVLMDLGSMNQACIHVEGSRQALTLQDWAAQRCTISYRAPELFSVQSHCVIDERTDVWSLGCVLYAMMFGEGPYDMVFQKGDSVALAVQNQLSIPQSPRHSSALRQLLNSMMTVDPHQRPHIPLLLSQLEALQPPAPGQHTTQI", "details": "0.1 µM; binder"}, "FLT3(D835V)": {"target": "FLT3(D835V) (Homo sapiens, UniProt P36888, D835V)", "details": "0.1 µM; binder"}, "HPK1": {"target": "HPK1 (Homo sapiens, UniProt Q92918)", "details": "0.1 µM; binder"}, "PRKCE": {"target": "PRKCE (Homo sapiens, UniProt Q02156)", "sequence (Q02156 whole entry)": "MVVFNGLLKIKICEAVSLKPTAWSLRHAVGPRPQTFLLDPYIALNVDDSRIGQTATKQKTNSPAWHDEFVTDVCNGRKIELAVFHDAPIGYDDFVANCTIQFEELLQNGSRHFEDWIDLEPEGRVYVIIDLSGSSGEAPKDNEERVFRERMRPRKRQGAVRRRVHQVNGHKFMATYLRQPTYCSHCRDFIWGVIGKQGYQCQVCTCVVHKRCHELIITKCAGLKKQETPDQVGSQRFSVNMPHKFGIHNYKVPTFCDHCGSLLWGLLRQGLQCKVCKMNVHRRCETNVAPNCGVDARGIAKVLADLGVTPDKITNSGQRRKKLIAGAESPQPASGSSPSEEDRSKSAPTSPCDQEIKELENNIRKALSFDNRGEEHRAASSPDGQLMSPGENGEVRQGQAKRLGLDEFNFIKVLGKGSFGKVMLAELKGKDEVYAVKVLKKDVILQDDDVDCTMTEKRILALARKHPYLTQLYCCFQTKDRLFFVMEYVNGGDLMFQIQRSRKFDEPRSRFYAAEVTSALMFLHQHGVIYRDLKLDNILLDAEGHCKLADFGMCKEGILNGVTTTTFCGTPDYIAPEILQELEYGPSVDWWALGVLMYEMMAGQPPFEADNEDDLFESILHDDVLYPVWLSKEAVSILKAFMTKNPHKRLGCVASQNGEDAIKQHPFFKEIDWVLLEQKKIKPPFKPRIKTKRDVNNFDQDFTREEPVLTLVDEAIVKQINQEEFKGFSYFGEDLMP", "details": "0.1 µM; binder"}, "RIOK3": {"target": "RIOK3 (Homo sapiens, UniProt O14730)", "details": "0.1 µM; binder"}, "ACVR2B": {"target": "ACVR2B (Homo sapiens, UniProt Q13705)", "details": "0.1 µM; binder"}, "BRSK1": {"target": "BRSK1 (Homo sapiens, UniProt Q8TDC3)", "details": "0.1 µM; binder"}, "TNNI3K": {"target": "TNNI3K (Homo sapiens, UniProt Q59H18)", "details": "0.1 µM; binder"}, "MELK": {"target": "MELK (Homo sapiens, UniProt Q14680)", "details": "0.1 µM; binder"}, "FLT3(D835Y)": {"target": "FLT3(D835Y) (Homo sapiens, UniProt P36888, D835Y)", "details": "0.1 µM; binder"}, "ABL1(T315I)": {"target": "ABL1(T315I) (Homo sapiens, UniProt P00519, T315I)", "details": "0.1 µM, binder"}, "MARK3": {"target": "MARK3 (Homo sapiens, UniProt P27448)", "details": "0.1 µM; binder"}, "EPHA1": {"target": "EPHA1 (Homo sapiens, UniProt P21709)", "details": "0.1 µM; binder"}, "LKB1": {"target": "LKB1 (Homo sapiens, UniProt Q15831)", "sequence (Q15831 whole entry)": "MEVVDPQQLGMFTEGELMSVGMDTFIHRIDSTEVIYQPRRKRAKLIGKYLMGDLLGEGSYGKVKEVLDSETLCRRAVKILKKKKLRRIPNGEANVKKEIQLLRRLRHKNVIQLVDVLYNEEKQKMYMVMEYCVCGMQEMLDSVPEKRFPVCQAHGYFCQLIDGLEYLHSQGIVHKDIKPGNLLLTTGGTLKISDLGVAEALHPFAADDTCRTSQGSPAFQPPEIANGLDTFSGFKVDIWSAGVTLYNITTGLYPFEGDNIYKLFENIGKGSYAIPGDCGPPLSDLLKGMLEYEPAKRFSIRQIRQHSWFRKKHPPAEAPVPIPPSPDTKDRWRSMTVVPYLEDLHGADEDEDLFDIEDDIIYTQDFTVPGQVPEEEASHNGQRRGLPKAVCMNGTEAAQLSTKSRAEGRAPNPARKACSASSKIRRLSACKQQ", "details": "0.1 µM; binder"}, "LCK": {"target": "LCK (Homo sapiens, UniProt P06239)", "details": "0.1 µM; binder"}, "CIT": {"target": "CIT (Homo sapiens, UniProt O14578)", "details": "0.1 µM; binder"}, "CSNK2A1": {"target": "CSNK2A1 (Homo sapiens, UniProt P68400)", "sequence (P68400 whole entry)": "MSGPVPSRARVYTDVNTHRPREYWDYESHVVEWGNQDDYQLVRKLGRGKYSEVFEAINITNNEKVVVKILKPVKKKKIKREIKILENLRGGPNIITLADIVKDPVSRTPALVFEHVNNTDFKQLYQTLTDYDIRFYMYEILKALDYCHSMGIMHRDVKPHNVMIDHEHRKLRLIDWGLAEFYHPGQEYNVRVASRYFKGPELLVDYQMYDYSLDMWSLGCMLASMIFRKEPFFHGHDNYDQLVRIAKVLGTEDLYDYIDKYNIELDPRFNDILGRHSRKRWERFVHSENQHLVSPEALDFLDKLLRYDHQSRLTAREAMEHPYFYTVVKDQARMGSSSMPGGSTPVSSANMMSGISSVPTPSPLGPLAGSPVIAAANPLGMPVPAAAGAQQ", "details": "0.1 µM; binder"}, "MET(Y1235D)": {"target": "MET(Y1235D) (Homo sapiens, UniProt P08581, Y1235D)", "details": "0.1 µM; binder"}, "FER": {"target": "FER (Homo sapiens, UniProt P16591)", "details": "0.1 µM; binder"}, "DAPK2": {"target": "DAPK2 (Homo sapiens, UniProt Q9UIK4)", "details": "0.1 µM; binder"}, "MKNK2": {"target": "MKNK2 (Homo sapiens, UniProt Q9HBH9)", "details": "0.1 µM; binder"}, "NIK": {"target": "NIK (Homo sapiens, UniProt Q99558)", "details": "0.1 µM; binder"}, "CDK5": {"target": "CDK5 (Homo sapiens, UniProt Q00535)", "sequence (Q00535 whole entry)": "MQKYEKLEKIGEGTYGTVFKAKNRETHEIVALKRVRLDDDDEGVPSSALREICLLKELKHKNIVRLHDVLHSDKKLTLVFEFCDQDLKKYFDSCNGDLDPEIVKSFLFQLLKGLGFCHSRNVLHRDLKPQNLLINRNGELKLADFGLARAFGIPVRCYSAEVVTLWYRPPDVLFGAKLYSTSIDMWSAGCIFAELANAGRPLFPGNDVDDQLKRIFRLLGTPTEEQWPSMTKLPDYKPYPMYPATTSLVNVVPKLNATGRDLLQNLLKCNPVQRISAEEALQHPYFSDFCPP", "details": "0.1 µM; binder"}, "MYO3B": {"target": "MYO3B (Homo sapiens, UniProt Q8WXR4)", "sequence (Q8WXR4 whole entry)": "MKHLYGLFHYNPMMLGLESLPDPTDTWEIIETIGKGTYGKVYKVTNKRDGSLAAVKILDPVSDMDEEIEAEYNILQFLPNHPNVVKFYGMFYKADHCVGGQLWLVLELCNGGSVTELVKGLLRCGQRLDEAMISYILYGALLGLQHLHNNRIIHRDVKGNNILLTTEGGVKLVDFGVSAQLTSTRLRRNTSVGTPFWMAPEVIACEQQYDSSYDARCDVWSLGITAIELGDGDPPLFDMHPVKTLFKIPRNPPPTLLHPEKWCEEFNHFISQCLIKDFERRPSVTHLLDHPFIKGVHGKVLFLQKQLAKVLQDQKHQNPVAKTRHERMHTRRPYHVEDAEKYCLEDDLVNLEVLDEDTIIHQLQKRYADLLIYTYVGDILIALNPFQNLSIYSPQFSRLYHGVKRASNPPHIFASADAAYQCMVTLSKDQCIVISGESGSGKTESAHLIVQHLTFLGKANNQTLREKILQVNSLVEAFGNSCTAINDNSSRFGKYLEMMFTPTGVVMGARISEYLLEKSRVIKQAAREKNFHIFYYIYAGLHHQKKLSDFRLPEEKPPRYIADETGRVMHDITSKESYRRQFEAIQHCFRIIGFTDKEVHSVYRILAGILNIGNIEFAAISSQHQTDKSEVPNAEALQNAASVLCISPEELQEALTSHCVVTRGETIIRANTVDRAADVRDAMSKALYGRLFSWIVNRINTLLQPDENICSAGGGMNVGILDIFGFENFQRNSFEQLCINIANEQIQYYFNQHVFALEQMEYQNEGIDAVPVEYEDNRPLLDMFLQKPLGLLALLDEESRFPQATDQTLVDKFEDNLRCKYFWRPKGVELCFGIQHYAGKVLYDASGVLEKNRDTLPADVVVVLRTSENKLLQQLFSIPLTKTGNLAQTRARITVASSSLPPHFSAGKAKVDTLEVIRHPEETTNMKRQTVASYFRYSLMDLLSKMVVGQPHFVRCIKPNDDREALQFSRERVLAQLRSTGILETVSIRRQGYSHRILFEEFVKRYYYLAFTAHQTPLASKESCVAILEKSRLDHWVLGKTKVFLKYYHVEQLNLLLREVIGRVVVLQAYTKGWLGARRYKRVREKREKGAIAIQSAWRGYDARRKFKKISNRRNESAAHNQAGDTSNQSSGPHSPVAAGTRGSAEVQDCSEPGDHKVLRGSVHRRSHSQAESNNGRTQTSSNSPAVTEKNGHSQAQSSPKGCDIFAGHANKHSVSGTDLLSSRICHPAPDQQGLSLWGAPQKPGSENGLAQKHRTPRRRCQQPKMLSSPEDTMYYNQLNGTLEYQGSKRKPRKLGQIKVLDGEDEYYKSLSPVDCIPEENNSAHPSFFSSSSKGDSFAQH", "details": "0.1 µM; binder"}, "EGFR(L861Q)": {"target": "EGFR(L861Q) (Homo sapiens, UniProt P00533, L861Q)", "details": "0.1 µM; binder"}, "EPHA7": {"target": "EPHA7 (Homo sapiens, UniProt Q15375)", "details": "0.1 µM; binder"}, "CLK1": {"target": "CLK1 (Homo sapiens, UniProt P49759)", "details": "0.1 µM; binder"}, "ABL1(F317L)": {"target": "ABL1(F317L) (Homo sapiens, UniProt P00519, F317L)", "details": "0.1 µM, binder"}, "CSNK1A1": {"target": "CSNK1A1 (Homo sapiens, UniProt P48729)", "sequence (P48729 whole entry)": "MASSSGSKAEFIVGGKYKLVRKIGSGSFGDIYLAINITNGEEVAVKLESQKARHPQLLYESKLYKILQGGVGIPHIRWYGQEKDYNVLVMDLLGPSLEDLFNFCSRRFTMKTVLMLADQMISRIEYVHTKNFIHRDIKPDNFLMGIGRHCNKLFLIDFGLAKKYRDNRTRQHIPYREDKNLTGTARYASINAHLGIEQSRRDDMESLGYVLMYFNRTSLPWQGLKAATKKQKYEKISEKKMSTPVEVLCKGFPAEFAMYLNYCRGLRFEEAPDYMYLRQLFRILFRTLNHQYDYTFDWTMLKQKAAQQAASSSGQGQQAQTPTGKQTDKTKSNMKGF", "details": "0.1 µM; binder"}}, "note": "Read-outs that look alike come from different tables or passages of the source.", "data": [{"smiles": "CNc1ncc2cc(-c3ccc(-c4cccc(C)n4)cc3Cl)c(=O)n(C[C@H]3OC[C@H](N)CO3)c2n1", "note": "[compound 6, G-5555]", "values": [{"measurement": "Percent Control", "setting": "PIK3CB", "result": 100, "unit": "%"}, {"measurement": "Percent Control", "setting": "STK16", "result": 100, "unit": "%"}, {"measurement": "Percent Control", "setting": "FLT3(D835V)", "result": 85, "unit": "%"}, {"measurement": "Percent Control", "setting": "HPK1", "result": 78, "unit": "%"}, {"measurement": "Percent Control", "setting": "PRKCE", "result": 95, "unit": "%"}, {"measurement": "Percent Control", "setting": "RIOK3", "result": 85, "unit": "%"}, {"measurement": "Percent Control", "setting": "ACVR2B", "result": 100, "unit": "%"}, {"measurement": "Percent Control", "setting": "BRSK1", "result": 100, "unit": "%"}, {"measurement": "Percent Control", "setting": "TNNI3K", "result": 100, "unit": "%"}, {"measurement": "Percent Control", "setting": "MELK", "result": 51, "unit": "%"}, {"measurement": "Percent Control", "setting": "FLT3(D835Y)", "result": 94, "unit": "%"}, {"measurement": "Percent Control", "setting": "ABL1(T315I); nonphosphorylated", "result": 90, "unit": "%"}, {"measurement": "Percent Control", "setting": "ABL1(T315I); phosphorylated", "result": 100, "unit": "%"}, {"measurement": "Percent Control", "setting": "MARK3", "result": 45, "unit": "%"}, {"measurement": "Percent Control", "setting": "EPHA1", "result": 64, "unit": "%"}, {"measurement": "Percent Control", "setting": "LKB1", "result": 100, "unit": "%"}, {"measurement": "Percent Control", "setting": "LCK", "result": 58, "unit": "%"}, {"measurement": "Percent Control", "setting": "CIT", "result": 100, "unit": "%"}, {"measurement": "Percent Control", "setting": "CSNK2A1", "result": 88, "unit": "%"}, {"measurement": "Percent Control", "setting": "MET(Y1235D)", "result": 100, "unit": "%"}, {"measurement": "Percent Control", "setting": "FER", "result": 100, "unit": "%"}, {"measurement": "Percent Control", "setting": "DAPK2", "result": 100, "unit": "%"}, {"measurement": "Percent Control", "setting": "MKNK2", "result": 100, "unit": "%"}, {"measurement": "Percent Control", "setting": "NIK", "result": 100, "unit": "%"}, {"measurement": "Percent Control", "setting": "CDK5", "result": 100, "unit": "%"}, {"measurement": "Percent Control", "setting": "MYO3B", "result": 48, "unit": "%"}, {"measurement": "Percent Control", "setting": "EGFR(L861Q)", "result": 100, "unit": "%"}, {"measurement": "Percent Control", "setting": "EPHA7", "result": 100, "unit": "%"}, {"measurement": "Percent Control", "setting": "CLK1", "result": 100, "unit": "%"}, {"measurement": "Percent Control", "setting": "ABL1(F317L); nonphosphorylated", "result": 100, "unit": "%"}, {"measurement": "Percent Control", "setting": "ABL1(F317L); phosphorylated", "result": 95, "unit": "%"}, {"measurement": "Percent Control", "setting": "CSNK1A1", "result": 100, "unit": "%"}]}]}
